Source: patent publication US8658638B2, “Mineralocorticoid receptor antagonist and methods of use” (priority 2009, dated 2014)

Key:
[1] = molecular target: T1, human progesterone receptor (PR) (Homo sapiens, UniProt P06401); assay: Nuclear hormone receptor panel screen (luciferase reporter, HEK293), PR; format: cell-based
T1 construct: expressed in transfected cells; host or cells: HEK293
T1 sequence (P06401 1-933): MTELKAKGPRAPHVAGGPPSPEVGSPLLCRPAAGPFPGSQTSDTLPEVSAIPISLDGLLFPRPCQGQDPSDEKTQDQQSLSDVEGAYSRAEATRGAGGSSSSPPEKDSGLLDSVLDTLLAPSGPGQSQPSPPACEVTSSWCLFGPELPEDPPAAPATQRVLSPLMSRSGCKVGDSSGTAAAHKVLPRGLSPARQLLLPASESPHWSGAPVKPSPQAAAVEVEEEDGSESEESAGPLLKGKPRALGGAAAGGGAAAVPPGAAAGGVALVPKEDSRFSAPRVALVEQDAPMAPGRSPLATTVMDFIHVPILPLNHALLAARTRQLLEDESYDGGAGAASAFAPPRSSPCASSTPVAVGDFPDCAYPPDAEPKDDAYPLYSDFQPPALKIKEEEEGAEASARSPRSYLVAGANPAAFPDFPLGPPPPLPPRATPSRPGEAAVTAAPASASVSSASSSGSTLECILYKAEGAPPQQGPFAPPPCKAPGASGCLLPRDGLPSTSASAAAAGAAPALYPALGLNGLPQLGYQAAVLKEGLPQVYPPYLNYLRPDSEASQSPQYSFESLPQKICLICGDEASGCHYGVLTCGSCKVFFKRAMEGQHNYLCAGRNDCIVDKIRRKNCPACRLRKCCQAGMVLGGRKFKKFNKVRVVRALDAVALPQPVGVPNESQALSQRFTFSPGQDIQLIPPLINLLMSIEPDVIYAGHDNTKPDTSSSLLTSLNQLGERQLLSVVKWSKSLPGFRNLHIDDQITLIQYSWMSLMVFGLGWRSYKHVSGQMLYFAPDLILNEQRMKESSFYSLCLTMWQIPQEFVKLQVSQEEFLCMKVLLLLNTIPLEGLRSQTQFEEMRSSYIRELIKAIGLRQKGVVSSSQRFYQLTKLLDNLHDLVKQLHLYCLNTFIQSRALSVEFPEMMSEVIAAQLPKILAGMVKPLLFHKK
Description: Aldosterone exerts it physiological effects through interaction with the mineralocorticoid receptor. Following cytoplasmic binding of aldosterone to MR, the ligand receptor complex translocates to the cell nucleus where it binds to hormone response elements on DNA to initiate expression of target genes. […] The solvents, reagents, and ligands employed in the functional assay are readily available from commercial sources, or can be prepared by one of ordinary skill in the art.
Human embryonic kidney HEK293 cells are transfected with steroid hormone receptor and reporter gene plasmids using a suitable transfection reagent such as Fugene™. […] After 24 hours incubation with test compounds, cells are lysed and luciferase activity is determined using standard techniques.
Data are fitted to a four parameter-fit logistic curve to determine EC50 values. […] IC50 values are determined similarly using antagonist mode assay data. In the antagonist mode, percent inhibitions are determined by comparing test compound activity in the presence of low concentration of agonist (0.08 nM aldosterone for MR, 0.25 nM dexamethasone for GR, 0.66 nM of methyltrienolone for AR, and 0.08 nM of promegestone for PR) to the response produced by the same low concentration of agonist in the absence of test compound.

[2] = molecular target: T2, human PR (progesterone receptor) (Homo sapiens, UniProt P06401); assay: Steroid nuclear hormone receptor binding assay, PR; details: [3H]-methyltrienolone, HEK293 lysate overexpressing human PR
T2 construct: expressed in transfected cells; host or cells: HEK293 (293-PR lysate)
T2 sequence (P06401 1-933): T1 sequence (P06401 1-933)
Procedure: Cell lysates from human embryonic kidney HEK293 cells overexpressing human MR (mineralocorticoid receptor), GR (glucocorticoid receptor), AR (androgen receptor), or PR (progesterone receptor) are used for receptor-ligand competition binding assays to determine Ki values.
Briefly, steroid receptor competition binding assays are run in a buffer containing 20 mM HEPES buffer (pH=7.6), 0.2 mM EDTA, 75 mM NaCl, 1.5 mM MgCl2, 20% glycerol, 20 mM sodium molybdate, 0.2 mM DTT (dithiothreitol), 20 μg/mL aprotinin and 20 μg/mL leupeptin (assay buffer). Typically, steroid receptor binding assays include radio-labeled ligands, such as 0.25 nM [^3H]-aldosterone for MR binding, 0.7 nM [^3H]-dexamethasone for GR binding, 0.36 nM [^3H]-methyltrienolone for AR binding, and 0.29 nM [^3H]-methyltrienolone for PR binding, and either 20 μg 293-MR lysate, 20 μg 293-GR lysate, 22 μg 293-AR lysate, or 40 μg 293-PR lysate per well. Assays are typically run in 96-well format. Competing test compounds are added at various concentrations ranging from about 0.01 nM to 10 μM. Non-specific binding is determined in the presence of 500 nM aldosterone for MR binding, 500 nM dexamethasone for GR binding, or 500 nM methyltrienolone for AR and PR binding. […] After an incubation of 2 hours, plates are read in a Wallac Microbeta counter. […]

O=c1[nH]c2cc(/C=C3\c4ccccc4COc4cc(F)ccc43)ccc2n1[C@@H]1C[C@@H]2COCCN2C1 [Compound (I), 5-((E)-(3-fluorodibenzo[b,e]oxepin-11(6H)-ylidene)methyl)-1-((7R,8aR)-hexahydro-1H-pyrrolo[2,1-c][1,4]oxazin-7-yl)-1H-benzo[d]imidazol-2(3H)-one]
EC50 ([1]; agonist mode): > 10 µM | IC50 ([1]; antagonist mode, 0.08 nM promegestone): ~0.924 µM | Ki [2]: ~0.478 µM
